Laboratory results reported in PubChem BioAssay AID328 (DTP/NCI, 2004).
Several values for one entry are separate records, joined by “and”; a condition that tells them apart may be missing. Equal entries are not always repeated. Inconclusive results and toxic doses are left out.

System: BDF1 mice, P388 leukemia ip, median survival T/C
Experiment: NCI In Vivo Anticancer Drug Screen. Data for tumor model P388 Leukemia (intraperitoneal) in B6D2F1 (BDF1) mice
Conditions: endpoint: median survival time, higher = longer survival
How it was run: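 Survival ratio, drug arm over vehicle arm, in mice with a transplanted tumour.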

[1] = dose: 25.0 mg/kg/injection, schedule: Q01DX009 (ip), vehicle: saline
[2] = dose: 50.0 mg/kg/injection, schedule: Q01DX009 (ip), vehicle: saline
[3] = dose: 100.0 mg/kg/injection, schedule: Q04DX003 (ip), vehicle: saline with Tween-80
[4] = dose: 200.0 mg/kg/injection, schedule: Q04DX003 (ip), vehicle: saline with Tween-80
[5] = dose: 12.5 mg/kg/injection, schedule: Q01DX009 (ip), vehicle: water
[6] = dose: 25.0 mg/kg/injection, schedule: Q01DX009 (ip), vehicle: water
[7] = dose: 50.0 mg/kg/injection, schedule: Q01DX009 (ip), vehicle: water
[8] = dose: 100.0 mg/kg/injection, schedule: Q01DX009 (ip), vehicle: water
[9] = dose: 200.0 mg/kg/injection, schedule: Q01DX009 (ip), vehicle: water
[10] = dose: 100.0 mg/kg/injection, schedule: Q01DX009 (ip), vehicle: saline with Tween-80
[11] = dose: 200.0 mg/kg/injection, schedule: Q01DX009 (ip), vehicle: saline with Tween-80
[12] = dose: 400.0 mg/kg/injection, schedule: Q01DX009 (ip), vehicle: saline with Tween-80
[13] = dose: 400.0 mg/kg/injection, schedule: Q04DX003 (ip), vehicle: saline with Tween-80
[14] = dose: 25.0 mg/kg/injection, schedule: Q04DX003 (ip), vehicle: saline with Tween-80
[15] = dose: 50.0 mg/kg/injection, schedule: Q04DX003 (ip), vehicle: saline with Tween-80
[16] = dose: 200.0 mg/kg/injection, schedule: Q01DX009 (ip), vehicle: Klucel (hydroxypropylcellulose) (HPC)

## CC1CN1P1(N2CC2C)=NP(N2CC2C)(N2CC2C)=NP(N2CC2C)(N2CC2C)=N1 (stereo not drawn)
dose: 4.4 mg/kg/injection, schedule: Q01DX009 (ip), vehicle: saline
  T/C: 122 % of control
dose: 6.6 mg/kg/injection, schedule: Q01DX009 (ip), vehicle: saline
  T/C: 124 % of control
dose: 15.0 mg/kg/injection, schedule: Q01DX009 (ip), vehicle: saline
  T/C: 161 % of control
dose: 16.5 mg/kg/injection, schedule: Q01DX009 (ip), vehicle: saline
  T/C: 155 % of control
[1]
  T/C: 160 % of control and 164 % of control
dose: 25.0 mg/kg/injection, schedule: Q04DX003 (ip), vehicle: saline
  T/C: 114 % of control
dose: 37.5 mg/kg/injection, schedule: Q01DX009 (ip), vehicle: saline
  T/C: 169 % of control
[2]
  T/C: 203 % of control
dose: 100.0 mg/kg/injection, schedule: Q04DX003 (ip), vehicle: saline
  T/C: 166 % of control and 214 % of control
dose: 200.0 mg/kg/injection, schedule: Q04DX003 (ip), vehicle: saline
  T/C: 102 % of control

## Cc1c(C)c2c(c(C)c1O)CCC(C)(CCCC(C)CCCC(C)CCCC(C)C)O2 (stereo not drawn)
dose: 30.0 IU/animal/injection, schedule: Q04DX003 (ip), vehicle: olive oil, sesame oil, peanut oil
  T/C: 100 % of control
dose: 85.0 IU/animal/injection, schedule: Q04DX003 (ip), vehicle: olive oil, sesame oil, peanut oil
  T/C: 100 % of control

## CC(C(O)c1cccs1)C(O)(C(F)(F)F)C(F)(F)F (stereo not drawn)
[3]
  T/C: 90 % of control
[4]
  T/C: 109 % of control

## CCOC(=O)/C(N=O)=C(\O)c1ccc2ccccc2n1
dose: 3.12 mg/kg/injection, schedule: Q01DX009 (ip), vehicle: water
  T/C: 106 % of control
dose: 6.25 mg/kg/injection, schedule: Q01DX009 (ip), vehicle: water
  T/C: 98 % of control and 99 % of control and 103 % of control
[5]
  T/C: 111 % of control and 123 % of control
[6]
  T/C: 94 % of control and 104 % of control and 106 % of control
dose: 25.0 mg/kg/injection, schedule: Q04DX003 (ip), vehicle: water
  T/C: 97 % of control
[7]
  T/C: 100 % of control and 103 % of control
dose: 50.0 mg/kg/injection, schedule: Q04DX003 (ip), vehicle: water
  T/C: 120 % of control
[8]
  T/C: 99 % of control
dose: 100.0 mg/kg/injection, schedule: Q04DX003 (ip), vehicle: water
  T/C: 105 % of control
[9]
  T/C: 91 % of control
dose: 200.0 mg/kg/injection, schedule: Q04DX003 (ip), vehicle: water
  T/C: 97 % of control
dose: 400.0 mg/kg/injection, schedule: Q01DX009 (ip), vehicle: water
  T/C: 110 % of control
dose: 400.0 mg/kg/injection, schedule: Q04DX003 (ip), vehicle: water
  T/C: 92 % of control

## C(=Nc1ccccc1)c1ccc(-c2ccccc2)cc1
[10]
  T/C: 115 % of control
[3]
  T/C: 104 % of control
[11]
  T/C: 100 % of control
[4]
  T/C: 104 % of control
[12]
  T/C: 115 % of control
[13]
  T/C: 109 % of control

## COc1cc2c3c(c1)-c1nc4ccccc4cc1CN3CCC2
dose: 12.5 mg/kg/injection, schedule: Q04DX003 (ip), vehicle: other
  T/C: 100 % of control
dose: 25.0 mg/kg/injection, schedule: Q04DX003 (ip), vehicle: other
  T/C: 113 % of control
dose: 50.0 mg/kg/injection, schedule: Q04DX003 (ip), vehicle: other
  T/C: 109 % of control

## CS(=O)(=O)OCCF
dose: 1.5 mg/kg/injection, schedule: Q01DX009 (ip), vehicle: saline with Tween-80
  T/C: 100 % of control
dose: 1.5 mg/kg/injection, schedule: Q04DX003 (ip), vehicle: saline
  T/C: 104 % of control
dose: 3.0 mg/kg/injection, schedule: Q01DX009 (ip), vehicle: saline with Tween-80
  T/C: 100 % of control
dose: 3.0 mg/kg/injection, schedule: Q04DX003 (ip), vehicle: saline
  T/C: 109 % of control

## CC/C(=N\NS(=O)(=O)c1ccc(C)cc1)c1ccc(OC)c(OC)c1
[2]
  T/C: 96 % of control
dose: 100.0 mg/kg/injection, schedule: Q01DX009 (ip), vehicle: saline
  T/C: 96 % of control
dose: 200.0 mg/kg/injection, schedule: Q01DX009 (ip), vehicle: saline
  T/C: 92 % of control

## C[n+]1c(-c2ccccc2)c2cc(N)ccc2c2ccc(N)cc21
[14]
  T/C: 171 % of control
[15]
  T/C: 90 % of control

## CC(=O)Nc1ccc(C=O)cc1[N+](=O)[O-]
dose: 100.0 mg/kg/injection, schedule: Q01DX009 (ip), vehicle: Klucel (hydroxypropylcellulose) (HPC)
  T/C: 110 % of control
[16]
  T/C: 100 % of control
dose: 400.0 mg/kg/injection, schedule: Q01DX009 (ip), vehicle: Klucel (hydroxypropylcellulose) (HPC)
  T/C: 100 % of control

## COc1ccc2c(c1)NC(=O)C2(C)SC (stereo not drawn)
dose: 12.5 mg/kg/injection, schedule: Q04DX003 (ip), vehicle: saline with Tween-80
  T/C: 103 % of control
[14]
  T/C: 97 % of control
[15]
  T/C: 106 % of control

## COc1cccc2c1C(=O)c1c(O)c3c(c(O)c1C2=O)CC(O)(C(C)=O)CC3O (stereo not drawn)
dose: 1.25 mg/kg/injection, schedule: Q01DX001 (ip), vehicle: saline
  T/C: 95 % of control and 104 % of control
dose: 2.5 mg/kg/injection, schedule: Q01DX001 (ip), vehicle: saline
  T/C: 100 % of control and 110 % of control
dose: 5.0 mg/kg/injection, schedule: Q01DX001 (ip), vehicle: saline
  T/C: 100 % of control
dose: 10.0 mg/kg/injection, schedule: Q01DX001 (ip), vehicle: saline
  T/C: 100 % of control and 109 % of control

## O=C(O)c1c2c(nc3ccccc13)Cc1ccccc1-2
[5]
  T/C: 96 % of control and 97 % of control
[1]
  T/C: 111 % of control
[6]
  T/C: 88 % of control and 114 % of control
[2]
  T/C: 110 % of control
[7]
  T/C: 119 % of control
dose: 90.0 mg/kg/injection, schedule: Q01DX009 (ip), vehicle: Klucel (hydroxypropylcellulose) (HPC)
  T/C: 163 % of control
[8]
  T/C: 173 % of control and 176 % of control
dose: 133.0 mg/kg/injection, schedule: Q01DX009 (ip), vehicle: Klucel (hydroxypropylcellulose) (HPC)
  T/C: 186 % of control
[16]
  T/C: 163 % of control
[9]
  T/C: 187 % of control

## Cn1c([N+](=O)[O-])cnc1CSc1nc(-c2ccccc2)no1
[3]
  T/C: 93 % of control
[4]
  T/C: 117 % of control
[13]
  T/C: 93 % of control

## CSCCC(NC(=O)NC(CCSC)C(=O)Oc1ccc([N+](=O)[O-])cc1)C(=O)Oc1ccc([N+](=O)[O-])cc1 (stereo not drawn)
dose: 50.0 mg/kg/injection, schedule: Q01DX009 (ip), vehicle: saline with Tween-80
  T/C: 87 % of control
[10]
  T/C: 96 % of control
[11]
  T/C: 112 % of control

## CC(=O)OC(C)C1C2=C(C(=O)CC1(C)O)C(=O)c1c(ccc(-c3ccc4c(c3O)C(=O)C3=C(C4=O)C(C(C)OC(C)=O)C(C)(O)CC3=O)c1O)C2=O (stereo not drawn)
dose: 6.25 mg/kg/injection, schedule: Q01DX009 (ip), vehicle: saline with Tween-80
  T/C: 122 % of control

## C/C(=N/O)[c-]1[c-][c-][c-][c-]1.[Fe].[c-]1[c-][c-][cH-][c-]1
[14]
  T/C: 100 % of control
[15]
  T/C: 109 % of control
[3]
  T/C: 109 % of control

## CCCCC[C@H](CN(C)C)[C@H](O)/C=C/c1ccc(Cl)cc1
dose: 12.5 mg/kg/injection, schedule: Q01DX009 (ip), vehicle: saline
  T/C: 101 % of control
[1]
  T/C: 112 % of control
[2]
  T/C: 108 % of control

## COC(=N)CCCCCC(=N)OC
dose: 50.0 mg/kg/injection, schedule: Q01DX005 (ip), vehicle: saline
  T/C: 92 % of control
dose: 100.0 mg/kg/injection, schedule: Q01DX005 (ip), vehicle: saline
  T/C: 97 % of control
dose: 200.0 mg/kg/injection, schedule: Q01DX005 (ip), vehicle: saline
  T/C: 87 % of control

## COc1cc(OC)c(OC)cc1/C=C/c1ccc2ccccc2n1
[3]
  T/C: 100 % of control
[4]
  T/C: 88 % of control
[13]
  T/C: 88 % of control

## COc1ccccc1C1(O)c2ccccc2Sc2cccc(OC)c21 (stereo not drawn)
[10]
  T/C: 104 % of control
[11]
  T/C: 100 % of control
[12]
  T/C: 95 % of control

## Nc1nc(-c2ccccc2)ns1
dose: 25.0 mg/kg/injection, schedule: Q01DX009 (ip), vehicle: saline sonified
  T/C: 100 % of control
dose: 50.0 mg/kg/injection, schedule: Q01DX009 (ip), vehicle: saline sonified
  T/C: 100 % of control

## COc1ccc(CC(=O)NCCN(CCN(CCO)C(=O)Cc2ccc(OC)cc2)C(=O)Cc2ccc(OC)cc2)cc1
[10]
  T/C: 105 % of control
[3]
  T/C: 120 % of control
[11]
  T/C: 95 % of control
[4]
  T/C: 100 % of control
[12]
  T/C: 100 % of control
[13]
  T/C: 105 % of control

## O=C(CC(O)(C(F)(F)F)C(F)(F)F)c1cccc(Cl)c1
dose: 100.0 mg/kg/injection, schedule: Q01DX001 (ip), vehicle: saline with Tween-80
  T/C: 113 % of control
dose: 200.0 mg/kg/injection, schedule: Q01DX001 (ip), vehicle: saline with Tween-80
  T/C: 113 % of control
dose: 400.0 mg/kg/injection, schedule: Q01DX001 (ip), vehicle: saline with Tween-80
  T/C: 118 % of control
